Source: patent publication US6218406A, “Farnesyl transferase inhibitors, their preparation, the pharmaceutical compositions which contain them and their use in the preparation of medicaments” (Aventis Pharma S.A., priority 1996, dated 2001)
pIC50: −log10 of the molar value.

molecular target: farnesyl transferase (Homo sapiens, UniProt P49354+P49356); assay: Farnesyl transferase inhibition, [3H]-farnesylation of biotinylated K-ras C-terminal peptide (SPA assay); assay type: biochemical; conditions: In vitro inhibitory activity (K-Ras) IC50, K-Ras substrate; 60 min at 37° C.; mean of two IC50 values
Description: The farnesyl transferase activity was measured by the amount farnesylated of K-ras substrate or of substrate derived from the peptide corresponding to its C-terminal part, the farnesyl group being introduced by farnesyl pyrophosphate (FPP).
It was then brought into contact with PVT-streptavidin (Amersham)® beads and was quantified by proximity scintillation (SPA assay) between the tritium and the PVT beads, by virtue of the streptavidin/biotin interaction.
Experimentally, farnesyl transferase purified according to the appended protocol was diluted, for this assay, to a concentration such that a consumption of substrates of less than 30% was obtained.
The reaction, carried out in Optiplates 96° microtitration plates, was initiated by the enzyme and lasted sixty minutes at 37° C. It was stopped by addition of 150 μl of mixture of a blocking buffer at pH 4 composed of 0.2M H3 PO4, 1.5 mM MgCl2, 0.5% (w/v) BSA, 0.05% (w/v) sodium azide containing 200 μg of PVT-streptavidin beads.
After slow agitation for thirty minutes (in order to remove the chemiluminescence), the plates were read as [^3 H]CPM in a Top Count® (Packard) scintillation counter for microplates, where they were converted into [^3 H]DPM from a range of coloured agent attenuating the scintillation (quenching).
The percentages of inhibition were calculated with respect to an inhibitor-free control after subtraction from all the values of that of a blank which only contained the substrates and the buffer.
The IC50 values were calculated or measured, from the inhibitions obtained at nine different concentrations, with Enzfitter® or Grafit® software. The IC50 values which appear in the results are the mean of measurements and calculations of two IC50 values.

Compound	pIC50
COc1ccccc1CC(=O)N1C[C@H]2[C@@]3(c4ccc(C)cc4)CC[C@H](c4ccccc43)[C@@]2(C(=O)O)C1 (relative stereo) [Example 5, (3aRS,4SR,9SR,9aRS)-4,9-ethano-2-[(2-methoxyphenyl)acetyl]-9-(4-methylphenyl)-2,3,3a,4,9,9a-hexahydro-1H-benzo[f]isoindole-3a-carboxylic Acid]	7.30

same assay, conditions: K-Ras substrate; 60 min at 37° C.; mean of two IC50 values; read-out: In vitro inhibitory activity (K-Ras) IC50

Compound	pIC50
C=C(C(=O)N1C[C@H]2[C@@]3(c4ccc(C)cc4)CC[C@H](c4ccccc43)[C@@]2(C(=O)NNc2ccccc2C)C1)c1ccccc1OC (relative stereo) [Example 29, (3aRS,4SR,9SR,9aRS)-4,9-ethano-2-[2-(2-methoxyphenyl)propenoyl]-9-(4-methylphenyl)-2,3,3a,4,9,9a-hexahydro-1H-benzo[f]isoindole-3a-N'-(2-methylphenyl)carbohydrazide]	6.85
COc1ccc([C@]23CC[C@H](c4ccccc42)[C@@]2(C(=O)O)CN(C(=O)Cc4ccccc4OC)C[C@@H]32)cc1 (relative stereo) [Example 6, (3aRS,4SR,9SR,9aRS)-4,9-ethano-9-(4-methoxyphenyl)-2-[(2-methoxyphenyl)acetyl]-2,3,3a,4,9,9a-hexahydro-1H-benzo[f]isoindole-3a-carboxylic Acid]	7.24
C=C(C(=O)N1C[C@H]2[C@@]3(c4ccc(C)cc4)CC[C@H](c4ccccc43)[C@@]2(C(=O)NCc2ccccc2)C1)c1ccccc1OC (relative stereo) [Example 13, (3aRS,4SR, 9SR,9aRS)-3a-N-benzylcarbamoyl-4,9-ethano-2-[2-(2-methoxyphenyl)propenoyl]-9-(4-methylphenyl)-2,3,3a,4,9,9a-hexahydro-1H-benzo[f]isoindole]	6.85
C=C(C(=O)N1C[C@@H]2[C@]3(c4ccc(C)cc4)CC[C@@H](c4ccccc43)[C@]2(C(N)=O)C1)c1ccccc1OC (racemic) [Example 15, (3aRS,4SR,9SR,9aRS)-3a-carbamoyl-4,9-ethano-2-[2-(2-methoxyphenyl)propenoyl]-9-(4-methylphenyl)-2,3,3a,4,9,9a-hexahydro-1H-benzo[f]isoindole]	6.77
C=C(C(=O)N1C[C@H]2[C@@]3(c4ccc(C)cc4)CC[C@H](c4ccccc43)[C@@]2(C(=O)NN(C)c2ccccc2)C1)c1ccccc1OC (relative stereo) [Example 28, (3aRS,4SR,9SR,9aRS)-4,9-ethano-2-[2-(2-methoxyphenyl)propenoyl]-9-(4-methylphenyl)-2,3,3a,4,9,9a-hexahydro-1H-benzo[f]isoindole-3a-N'-methyl-N'-phenylcarbohydrazide]	7.27
C=C(C(=O)N1C[C@H]2[C@@]3(c4ccc(C)cc4)CC[C@H](c4ccccc43)[C@@]2(C(=O)NNc2ccccc2)C1)c1ccccc1OC (relative stereo) [Example 23, (3aRS,4SR,9SR,9aRS)-4,9-ethano-2-[2-(2-methoxyphenyl)propenoyl]-9-(4-methylphenyl)-2,3,3a,4,9,9a-hexahydro-1H-benzo[f]isoindole-3a-N'-phenylcarbohydrazide]	6.56
C=C(C(=O)N1C[C@H]2[C@@]3(c4ccc(C)cc4)CC[C@H](c4ccccc43)[C@@]2(C(=O)NCc2cccnc2)C1)c1ccccc1OC (relative stereo) [Example 17, (3aRS,4SR,9SR,9aRS)-4,9-ethano-2-[2-(2-methoxyphenyl)propenoyl]-9-(4-methylphenyl)-2,3,3a,4,9,9a-hexahydro-1H-benzo[f]isoindole-3a-N-(3-pyridylmethyl)carboxamide]	6.63

Continued, values first:

pIC50	Compound
7.40	C=C(C(=O)N1C[C@@H]2[C@]3(c4ccc(OC)c(O)c4)CC[C@@H](c4ccccc43)[C@]2(C(=O)O)C1)c1ccccc1OC (racemic) [Example 97, (3aRS,4SR,9SR,9aRS)-4,9-ethano-9-(3-hydroxy-4-methoxyphenyl)-2-[2-(2-methoxyphenyl)propenoyl]-2,3,3a,4,9,9a-hexahydro-1H-benzo[f]isoindole-3a-carboxylic Acid]
7.74	C=C(C(=O)N1C[C@@H]2[C@]3(c4ccc(C)cc4)CC[C@@H](c4c(OC)cccc43)[C@]2(C(=O)O)C1)c1ccccc1OC (racemic) [Example 99, (3aRS,4SR,9SR,9aRS)-4,9-ethano-5-methoxy-2-[2-(2-methoxyphenyl)propenoyl]-9-(4-methylphenyl)-2,3,3a,4,9,9a-hexahydro-1H-benzo[f]isoindole-3a-carboxylic Acid]
8.10	C=C(C(=O)N1C[C@H]2[C@@]3(c4ccc(OC)cc4)CC[C@H](c4ccccc43)[C@@]2(C(=O)O)C1)c1ccccc1OC (single isomer, unassigned) [Example 75, Dextrorotatory Enantiomer of (3aRS,4SR,9SR,9aRS)-4,9-ethano-9-(4-methoxyphenyl)-2-[2-(2-methoxyphenyl)propenoyl]-2,3,3a,4,9,9a-hexahydro-1H-benzo[f]isoindole-3a-carboxylic Acid]
8.10	C=C(C(=O)N1C[C@@H]2[C@]3(c4cccc(Br)c4)CC[C@@H](c4ccccc43)[C@]2(C(=O)O)C1)c1ccccc1OC (racemic) [Example 84, (3aRS,4SR,9SR,9aRS)-9-(3-bromophenyl)-4,9-ethano-2-[2-(2-methoxyphenyl)propenoyl]-2,3,3a,4,9,9a-hexahydro-1H-benzo[f]isoindole-3a-carboxylic Acid]
8.05	C=C(C(=O)N1C[C@@H]2[C@]3(c4ccc(C(F)(F)F)cc4)CC[C@@H](c4ccccc43)[C@]2(C(=O)O)C1)c1ccccc1OC (single isomer, unassigned) [Example 41, dextrorotatory enantiomer of (3aRS,4SR,9SR,9aRS)-4,9-ethano-2-[2-(2-methoxyphenyl)propenoyl]-9-[4-(trifluoromethyl)phenyl]-2,3,3a,4,9,9a-hexahydro-1H-benzo[f]isoindole-3a-carboxylic Acid]
6.34	C=C(C(=O)N1C[C@@H]2[C@]3(c4ccc(OC)cc4)CC[C@@H](c4ccccc43)[C@]2(C(=O)OC)C1)c1ccccc1OC (racemic) [Example 73, methyl (3aRS,4SR,9SR,9aRS)-4,9-ethano-9-(4-methoxyphenyl)-2-[2-(2-methoxyphenyl)propenoyl]-2,3,3a,4,9,9a-hexahydro-1H-benzo[f]isoindole-3a-carboxylate]
6.62	C=C(C(=O)N1C[C@H]2[C@@]3(c4ccc5c(c4)OCCO5)CC[C@H](c4ccccc43)[C@@]2(C(=O)NCc2cccnc2)C1)c1ccccc1OC (relative stereo) [Example 33, (3aRS,4SR,9SR,9aRS)-9-(2,3-dihydro-1,4-benzodioxin-6-yl)-4,9-ethano-2-[2-(2-methoxyphenyl)propenoyl]-2,3,3a,4,9,9a-hexahydro-1H-benzo[f]isoindole-3a-N-(3-pyridylmethyl)carboxamide]
7.17	C=C(C(=O)N1C[C@@H]2[C@]3(c4ccc(Cl)c(Cl)c4)CC[C@@H](c4ccccc43)[C@]2(C(=O)O)C1)c1ccccc1OC (racemic) [Example 51, (3aRS,4SR,9SR,9aRS)-9-(3,4-dichlorophenyl)-4,9-ethano-2-[2-(2-methoxyphenyl)-propenoyl]-2,3,3a,4,9,9a-hexahydro-1H-benzo[f]isoindole-3a-carboxylic Acid]
6.50	C=C(C(=O)N1C[C@@H]2[C@]3(c4cccc(Br)c4)CC[C@@H](c4ccccc43)[C@]2(C(=O)OC)C1)c1ccccc1OC (racemic) [Example 83, methyl (3aRS,4SR,9SR,9aRS)-9-(3-bromophenyl)-4,9-ethano-2-[2-(2-methoxyphenyl)propenoyl]-2,3,3a,4,9,9a-hexahydro-1H-benzo[f]isoindole-3a-carboxylate]
7.17	C=C(C(=O)N1C[C@H]2[C@@]3(c4cccc(Cl)c4)CC[C@H](c4ccccc43)[C@@]2(C(=O)NCc2cccnc2)C1)c1ccccc1OC (relative stereo) [Example 90, (3aRS,4SR,9SR,9aRS)-9-(3-chlorophenyl)-4,9-ethano-2-[2-(2-methoxyphenyl)propenoyl]-2,3,3a,4,9,9a-hexahydro-1H-benzo[f]isoindole-3a-N-(3-pyridylmethyl)carboxamide]
6.18	C=C(C(=O)N1C[C@@H]2[C@]3(c4ccc(C)cc4)CC[C@@H](c4c(OC)cccc43)[C@]2(C(=O)OC)C1)c1ccccc1OC (racemic) [Example 98, methyl (3aRS,4SR,9SR,9aRS)-4,9-ethano-5-methoxy-2-[2-(2-methoxyphenyl)propenoyl]-9-(4-methylphenyl)-2,3,3a,4,9,9a-hexahydro-1H-benzo[f]isoindole-3a-carboxylate]
6.23	C=C(C(=O)N1C[C@@H]2[C@]3(c4ccc(C(F)(F)F)cc4)CC[C@@H](c4ccccc43)[C@]2(C(=O)NNC(=O)c2ccccc2)C1)c1ccccc1OC (relative stereo) [Example 43, (3aRS,4SR,9SR,9aRS)-4,9-ethano-2-[2-(2-methoxyphenyl)propenoyl]-9-[4-(trifluoromethyl)phenyl]-2,3,3a,4,9,9a-hexahydro-1H-benzo[f]isoindole-3a-N'-benzoylcarbohydrazide]
